Reference: ChEMBL document CHEMBL5226385, “The Antiangiogenic and Antitumor Effects of Scoparasin B in Non-Small-Cell Lung Cancer” (J Nat Prod, 2023)
The source made the active and inactive calls.

Columns and labels:
[1] = species on record: Rattus norvegicus; test: Ex vivo antiangiogenic activity against Sprague-Dawley rat aorta rings assessed as reduction in microvessel sprouting from aortic rings by measuring reduction in total microvessel lengths measured after 6 days by microscopic analysis; assay type: functional; conditions: dose 5-20 nM, time 6.0 day
[2] = test system: HBVP; test: Inhibition of cell adhesion in human HBVP cells assessed as reduction in cell adhesion number at 5 to 15 nM pretreated with compound for 24 hrs followed by culturing for 1 hr by crystal violet staining based inverted microscopic analysis; assay type: functional; conditions: dose 5-15 nM, time 25.0 hrs
[3] = test system: HMEC-1; test: Antiangiogenic activity against human HMEC-1 cells assessed as inhibition of cell migration measured after 24 hrs by Transwell migration assay; assay type: functional, cell-based; conditions: dose 5-15 nM
[4] = target: Vascular endothelial growth factor receptor 2 (Homo sapiens) (UniProt P35968); test: Inhibition of VEGF-A-mediated VEGF-R2 signaling pathway in human NCI-H1299 cells assessed as reduction in VEGF-R2 phosphorylation at Tyr1175 residue at 5 to 15 nM by western blot analysis; assay type: cell-based; conditions: dose 5-15 nM
Vascular endothelial growth factor receptor 2 (Homo sapiens), sequence (P35968 whole entry): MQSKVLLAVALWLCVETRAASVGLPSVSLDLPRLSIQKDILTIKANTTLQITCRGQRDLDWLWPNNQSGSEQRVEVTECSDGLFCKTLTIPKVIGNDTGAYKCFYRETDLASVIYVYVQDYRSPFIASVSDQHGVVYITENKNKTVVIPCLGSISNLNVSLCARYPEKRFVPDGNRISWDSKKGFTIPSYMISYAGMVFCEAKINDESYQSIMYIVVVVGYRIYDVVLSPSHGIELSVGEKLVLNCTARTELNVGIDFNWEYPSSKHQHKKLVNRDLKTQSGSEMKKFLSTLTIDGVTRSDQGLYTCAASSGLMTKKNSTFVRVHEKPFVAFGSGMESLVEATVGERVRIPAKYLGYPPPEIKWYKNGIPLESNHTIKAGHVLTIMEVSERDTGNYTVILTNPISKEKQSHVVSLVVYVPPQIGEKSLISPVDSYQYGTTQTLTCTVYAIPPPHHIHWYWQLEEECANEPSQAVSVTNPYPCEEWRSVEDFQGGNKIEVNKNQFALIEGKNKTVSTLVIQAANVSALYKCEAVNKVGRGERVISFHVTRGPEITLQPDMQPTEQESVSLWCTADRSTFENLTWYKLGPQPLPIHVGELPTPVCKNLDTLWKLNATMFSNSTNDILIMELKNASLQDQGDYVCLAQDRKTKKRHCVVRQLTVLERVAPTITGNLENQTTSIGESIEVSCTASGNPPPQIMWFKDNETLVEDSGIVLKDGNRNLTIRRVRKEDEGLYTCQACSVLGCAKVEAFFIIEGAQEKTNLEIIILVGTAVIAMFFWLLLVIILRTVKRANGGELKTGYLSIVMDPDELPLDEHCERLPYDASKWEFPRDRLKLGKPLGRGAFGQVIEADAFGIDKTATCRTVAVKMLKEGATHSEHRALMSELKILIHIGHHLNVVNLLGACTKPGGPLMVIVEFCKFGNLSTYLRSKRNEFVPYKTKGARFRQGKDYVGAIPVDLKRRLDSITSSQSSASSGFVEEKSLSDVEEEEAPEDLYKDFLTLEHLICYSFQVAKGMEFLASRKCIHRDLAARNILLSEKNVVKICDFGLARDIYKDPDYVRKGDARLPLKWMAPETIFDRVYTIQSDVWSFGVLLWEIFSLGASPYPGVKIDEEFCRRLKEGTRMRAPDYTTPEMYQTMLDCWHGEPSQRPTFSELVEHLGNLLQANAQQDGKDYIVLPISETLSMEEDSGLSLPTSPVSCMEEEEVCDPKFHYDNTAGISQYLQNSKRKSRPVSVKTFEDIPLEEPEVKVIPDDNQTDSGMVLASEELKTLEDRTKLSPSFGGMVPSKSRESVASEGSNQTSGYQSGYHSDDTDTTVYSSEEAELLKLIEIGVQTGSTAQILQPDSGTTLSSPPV

COc1ccc(C[C@@H]2NC(=O)[C@@]34OC(=O)O/C=C/[C@@](C)(O)C(=O)[C@@H](C)C/C=C/[C@H]3[C@H](O)[C@](C)(O)[C@@H](C)[C@@H]24)cc1 [SCOPARASIN B]
active: Activity [1] Dose-Dependent Effect | inhibition [2] | Activity [3] Dose-Dependent Effect | inhibition [4]
